The values that follow come from US8580751B2, “Esterified α-galactosylceramide” (Riken, priority 2008, dated 2013).

Molecules are shown by their SMILES.

Assay [1] deals with IFN-γ. As to the kind of experiment: IFN-γ content in serum after intraperitoneal administration of synthetic glycolipid to mouse (sandwich ELISA). The conditions noted are these: 100 μg/kg body weight intraperitoneally, C57BL/6 mice, 6-24 hr (compounds 23, 24) or 3-60 hr (compound 33) after administration. Type of assay: in vivo. The protocol: (§1) A 1 mg/mL dimethyl sulfoxide (DMSO) solution was prepared for each of α-GalCer, compound 23 and compound 24. The solutions were diluted with saline (manufactured by Otsuka Pharmaceutical Co., Ltd.) containing 0.5% Tween 20 (Bio-Rad) such that the dose would be 100 μg/kg body weight when 200 μL was intraperitoneally administered to one mouse.
(§2) Each of the prepared solutions (200 μL) of compounds 23 and 24 was intraperitoneally injected to C57BL/6 mice (2 per group). α-GalCer was used as a control substance, and 200 μL of α-GalCer solution prepared to a dose of 100 μg/kg body weight according to a similar method was injected intraperitoneally. A group administered with a medium (200 μL of saline containing 0.5% Tween 20) was taken as a negative control. The blood (80 μL) was taken from the orbital plexus venosus after the lapse of 6, 12 and 24 hr from the administration, and the serum was prepared.
(§3) The content of IFN-γ in the serum after lapse of 6, 12 and 24 hr from the administration was measured by sandwich ELISA (ENDOGEN). In addition, the content of IL-4 in the serum after lapse of 12 hr from the administration was measured by Cytometric bead array system (BD Biosciences), which is one kind of the ELISA method.
(§4) Using α-GalCer and compound 33, and according to a method similar to the above-mentioned Experimental Example 1, the blood (80 μL) was taken from the orbital plexus venosus after the lapse of 3, 6, 12, 24, 36, 48 and 60 hr from the administration, and the serum was prepared.
(§5) The content of IFN-γ in the serum after lapse of 3, 6, 12, 24, 36, 48 and 60 hr from the administration was measured by a method similar to the above-mentioned Experimental Example 1. In addition, the content of IL-4 in the serum after lapse of 3, 6 and 12 hr from the administration was measured by a method similar to the above-mentioned Experimental Example 1.
A general note: ELISA stands for enzyme-linked immunosorbent assay.

Assay [2] has as its system IL-4. As to the kind of experiment: IL-4 content in serum after intraperitoneal administration of synthetic glycolipid to mouse (Cytometric bead array system). Type of assay: in vivo. The conditions noted are these: 100 μg/kg body weight intraperitoneally, C57BL/6 mice, 12 hr (compounds 23, 24) or 3, 6, 12 hr (compound 33) after administration. How it is done:
as §1, §2, §3, §4, §5

Assay [3] has as its system NKT cells. To be noted: series of synthetic analogs of α-galactosylceramide; cited from earlier work.
Assay [4] deals with human NKT cells. To be noted: human system; cited from earlier work.
Assay [5] deals with NKT cells. To be noted: cited from earlier work.

Consider `CCCCCCC#CCCCCCC[C@@H](O)[C@@H](O)[C@H](CO[C@H]1O[C@H](CO)[C@H](O)[C@H](O)[C@H]1O)OC(=O)CCCCCCCCCCCCCCCCCCCCCCCCC` [Compound 23, (2S,3R,4R)-3,4-dihydroxy-2-hexacosanoyloxy-11-octadecyn-1-yl α-D-galactopyranoside], for which, in assay [1], the “production of IFN-γ as compared to α-GalCer” value is recorded as “equivalent or higher”. Further, the “production of IL-4 as compared to α-GalCer” value in assay [2] is “lower”.

Take `CCCCCCCCCCCCCCCCCCCCCCCCCC(=O)O[C@@H](CO[C@H]1O[C@H](COC)[C@H](O)[C@H](O)[C@H]1O)[C@H](O)[C@H](O)CCCCCCCCCCCCCC` [Compound 33, (2S,3R,4R)-3,4-dihydroxy-2-hexacosanoyloxyoctadecyl 6-O-methyl-α-D-galactopyranoside]: the “production of IFN-γ as compared to α-GalCer” value in assay [1] is given as “equivalent or higher”. Besides, in assay [2], the “production of IL-4 as compared to α-GalCer” value is “lower”.

For the compound `CCCCCCCCCCCCCCCCCCCCCCCCCC(=O)N[C@@H](CO[C@H]1OC(CO)[C@H](O)C(O)C1O)[C@H](O)[C@H](O)CCCCCCCCCCCCCC` (stereo partly drawn) [α-GalCer], in assay [3], the immunostimulatory activity result was “induces the strongest activity”.

Take `CCCCCCCCCCCCCCCCCCCCCCCCCC(=O)N[C@@H](CO[C@H]1CC(CO)[C@H](O)C(O)C1O)[C@H](O)[C@H](O)CCCCCCCCCCCCCC` (stereo partly shown): the “activity on human NKT cells in vitro” value in assay [4] is on record as “strong activity”. Besides, the “IFN-γ production by NKT cells” value in assay [5] is listed as “strongly induces”.

On to `CCCCCCCCCCCCCCCCCCCCCCCCCC(=O)O[C@@H](CO[C@H]1O[C@H](CO)[C@H](O)[C@H](O)[C@H]1O)[C@H](O)[C@H](O)CCCCCCCCCCCCCC` [Compound 24, (2S,3R,4R)-3,4-dihydroxy-2-hexacosanoyloxyoctadecyl α-D-galactopyranoside], for which, in assay [1], the “production of IFN-γ as compared to α-GalCer” value is “equivalent or higher”. Also, the “production of IL-4 as compared to α-GalCer” value in assay [2] is on record as “lower”.

With `CCCCCCCCCCCCCCCCCCCCCCCCCC(=O)N[C@@H](CC[C@H]1OC(CO)[C@H](O)C(O)C1O)[C@H](O)[C@H](O)CCCCCCCCCCCCCC` (stereo partly drawn) [α-C-GalCer], the “activity on human NKT cells in vitro” value in assay [4] is “very weak activity”.
